Experimental data as given in patent publication US10688099B2, “Methods for modulating the amount of RNA transcripts” (PTC Therapeutics, Inc., priority 2013, dated 2020).

Test system: RNA isoforms in PNN 1-46 SMA type I patient-derived fibroblasts
Test: RNA Abundance Modulation (RNA isoform abundance, iFPM, HiSeq RNA sequencing)
Format: cell-based, human
Details: 3 μM
Protocol: Cells from a cell line of interest are cultured in conditions sufficient to yield the number of cells capable of generating enough RNA for subsequent sequencing steps. Cells from the tested cell line are contacted with a compound described herein.
To culture said cells, they are seeded, at appropriate concentrations in a volume of media in a cell culture container and incubated for 4, 5, 6, 7, 8, 9, 10, or more hours. A concentrated solution of compound in a vehicle (e.g., DMSO) is then added in sufficient volume to result in the intended final concentration of the compound, for example 100 nM, 500 nM, 1 μM, 5 μM, 10 μM, 15 μM, 20 μM, or more. The cells may also be treated with vehicle alone, as a control. A number of replicates of each concentration or control may be made (e.g., 2 replicates). The cells are then incubated at a constant temperature appropriate for cell culture of the particular cell line (e.g., 37° C.) for 6, 12, 18, 24, 48, or more hours. After incubation, the growth medium is removed and the cells are washed with the appropriate buffer (e.g., PBS). Cells are then removed from adherence to the cell culture container by treatment with a solution containing trypsin, and the trypsin subsequently quenched with the appropriate volume of buffer (e.g., DMEM-FBS). The cells are then pelleted with gentle centrifugation (e.g., ≤90×g centrifugal force) and resuspended in a buffer to lyse the cells for extraction of RNA. The cell lysates may then be frozen (e.g., at −80° C.) or, alternately, may immediately be used in a procedure to purify the RNA (e.g. by use of the RNEASY PLUS® minikit). The RNA from cell lysates is eluted in the appropriate volume of buffer (e.g., RNEASE-FREE H2O®). The resulting purified RNA may then be sequenced (e.g., using RNASeq) or analyzed using a human exon array (e.g., by GENECHIP® human exon array) to determine changes in the RNA levels in those cells treated with compound compared to those cells treated only with DMSO. The purified RNA may also be quantified by other methods known in the art.
Using the RNA data obtained from sequencing, exon array, or other methods, a statistical analysis can reveal changes in the RNA levels of compound-treated compared with control. For example, t-test p-values may be calculated for the data obtained through sequencing and exon array methods in order to compare compound-treated cells to those treated with the DMSO control. […] Analysis of the sequencing and exon array data may then also yield predictions about the cause of the aberrant amount of an RNA transcript in the cells (e.g., perturbation of RNA splicing, RNA transcription, or RNA stability). These predictions may be further confirmed by methods known in the art. For example, RT-PCR and RT-qPCR may be used to confirm the change in amount of RNA transcripts for one or more particular transcripts of interest.
Following the methods described above in Example 1, PNN 1-46 SMA type I patient-derived fibroblasts were treated with 300 nM or 3 μM Compounds 774 and 808 in 0.5% DMSO.
700,000 cells were seeded in 10 mL of medium (DMEM plus 10% FBS) in a T-75 flask. Cells were allowed to attach for at least 4 hrs, after which 50 μL of a 200× compound solution (100% DMSO) was added to each well, and the plate was incubated at 37° C. for 24 hrs.
At the end of the incubation period, the supernatant was removed and the cells where washed with PBS. TrypLE (Invitrogen) express solution was added (e.g. 1.5 mL per one T75 flask). The flasks were incubated for 3 to 5 min at 37° C. The trypsin was then quenched, e.g., by adding 10 mL DMEM-FBS.
Next, the cells were pelleted using gentle centrifugation without exceeding 90×g centrifugal force. The supernatant was removed and the cell pellet was re-suspended in 600 μL RLT buffer (the RLT buffer was supplemented with beta-mercaptoethanol according to the RNeasy protocol manual) by pipetting up and down until the pellet was completely dissolved […]

Question: What does the source list for CCc1nc(C)cn2nc(-c3cc(=O)n4cc(C5CCN(C)CC5)cc(C)c4n3)cc12 [Compound 774]?
Answer: amp FC (x + 1) (TOMM5 CR627326): 2.36; ave Cpd (TOMM5 CR627326): 4 iFPM; FC (x + 1) (TOMM5 NM_001001790): 0.3953; L2FC (x + 1) (TOMM5 NM_001001790): −1.339; L2abs (Cpd-DMSO) (TOMM5 NM_001001790): 10.21; abs (Cpd-DMSO) (TOMM5 NM_001001790): 1185 iFPM; amp FC (x + 1) (TOMM5 NM_001001790): 2.53; ave Cpd (TOMM5 NM_001001790): 774 iFPM; FC (x + 1) (TOMM5 NM_001134484): 0.2630; L2FC (x + 1) (TOMM5 NM_001134484): −1.927; L2abs (Cpd-DMSO) (TOMM5 NM_001134484): 3.41; abs (Cpd-DMSO) (TOMM5 NM_001134484): 11 iFPM; amp FC (x + 1) (TOMM5 NM_001134484): 3.80; ave Cpd (TOMM5 NM_001134484): 3 iFPM; FC (x + 1) (TOMM5 NM_001134485): 0.4705; L2FC (x + 1) (TOMM5 NM_001134485): −1.088; L2abs (Cpd-DMSO) (TOMM5 NM_001134485): 4.88; abs (Cpd-DMSO) (TOMM5 NM_001134485): 29 iFPM; amp FC (x + 1) (TOMM5 NM_001134485): 2.13; ave Cpd (TOMM5 NM_001134485): 25 iFPM; FC (x + 1) (TRAF3 NM_003300): 0.1622; L2FC (x + 1) (TRAF3 NM_003300): −2.624; L2abs (Cpd-DMSO) (TRAF3 NM_003300): 8.22; abs (Cpd-DMSO) (TRAF3 NM_003300): 298 iFPM; amp FC (x + 1) (TRAF3 NM_003300): 6.17; ave Cpd (TRAF3 NM_003300): 57 iFPM; FC (x + 1) (TRAF3 NM_145725): 0.7367; L2FC (x + 1) (TRAF3 NM_145725): −0.441; L2abs (Cpd-DMSO) (TRAF3 NM_145725): 8.08; abs (Cpd-DMSO) (TRAF3 NM_145725): 271 iFPM; amp FC (x + 1) (TRAF3 NM_145725): 1.36; ave Cpd (TRAF3 NM_145725): 757 iFPM; FC (x + 1) (TRAF3 NM_145726): 1.0000; L2FC (x + 1) (TRAF3 NM_145726): 0.000; L2abs (Cpd-DMSO) (TRAF3 NM_145726): 0; abs (Cpd-DMSO) (TRAF3 NM_145726): 0 iFPM; amp FC (x + 1) (TRAF3 NM_145726): 1.00; ave Cpd (TRAF3 NM_145726): 0 iFPM; FC (x + 1) (TRAF3 NM_001199427): 1.2405; L2FC (x + 1) (TRAF3 NM_001199427): 0.311; L2abs (Cpd-DMSO) (TRAF3 NM_001199427): 2.15; abs (Cpd-DMSO) (TRAF3 NM_001199427): 4 iFPM; amp FC (x + 1) (TRAF3 NM_001199427): 1.24; ave Cpd (TRAF3 NM_001199427): 22 iFPM; FC (x + 1) (TRAK1 AK295848): 1.1521; L2FC (x + 1) (TRAK1 AK295848): 0.204; L2abs (Cpd-DMSO) (TRAK1 AK295848): 6.64; abs (Cpd-DMSO) (TRAK1 AK295848): 100 iFPM; amp FC (x + 1) (TRAK1 AK295848): 1.15; ave Cpd (TRAK1 AK295848): 755 iFPM; FC (x + 1) (TRAK1 NM_014965): 0.0190; L2FC (x + 1) (TRAK1 NM_014965): −5.718; L2abs (Cpd-DMSO) (TRAK1 NM_014965): 5.69; abs (Cpd-DMSO) (TRAK1 NM_014965): 52 iFPM; amp FC (x + 1) (TRAK1 NM_014965): 52.63; ave Cpd (TRAK1 NM_014965): 0 iFPM; FC (x + 1) (TRAK1 NM_001042646): 0.6949; L2FC (x + 1) (TRAK1 NM_001042646): −0.525; L2abs (Cpd-DMSO) (TRAK1 NM_001042646): 7.09; abs (Cpd-DMSO) (TRAK1 NM_001042646): 136 iFPM; amp FC (x + 1) (TRAK1 NM_001042646): 1.44; ave Cpd (TRAK1 NM_001042646): 309 iFPM; FC (x + 1) (TRAK1 NM_001265608): 0.8894; L2FC (x + 1) (TRAK1 NM_001265608): −0.169; L2abs (Cpd-DMSO) (TRAK1 NM_001265608): 6.46; abs (Cpd-DMSO) (TRAK1 NM_001265608): 88 iFPM; amp FC (x + 1) (TRAK1 NM_001265608): 1.12; ave Cpd (TRAK1 NM_001265608): 705 iFPM; FC (x + 1) (TRAK1 NM_001265610): 0.6862; L2FC (x + 1) (TRAK1 NM_001265610): −0.543; L2abs (Cpd-DMSO) (TRAK1 NM_001265610): 3.13; abs (Cpd-DMSO) (TRAK1 NM_001265610): 9 iFPM; amp FC (x + 1) (TRAK1 NM_001265610): 1.46; ave Cpd (TRAK1 NM_001265610): 18 iFPM; FC (x + 1) (TRAPPC12 AK094181): 1.2209
